# In ChEMBL document CHEMBL1201862, “PubChem BioAssay data set” (2004):
#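 Test compounds were applied to cells in 96-well plates for 48 hours at 5 doses. GI50 = concentration required for 50% inhibition of growth.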 The source made the active and inactive calls. Rule as the data show it: active = GI50 up to about 1.1 µM and inactive = higher.
# What was measured:
# Assay in all cases: growth of human tumour cells (NCI), 48 h
# SK-MEL-5 = test system: SK-MEL-5
# SR = test system: SR
# KM12 = test system: KM12
# IGROV-1 = test system: IGROV-1
# UO-31 = test system: UO-31
# Malme-3M = test system: Malme-3M
# NCI-H522 = test system: NCI-H522
# OVCAR-8 = test system: OVCAR-8
# K562 = test system: K562
# CCRF-CEM = test system: CCRF-CEM
# HL-60 = test system: HL-60
# RXF 393 = test system: RXF 393
# 786-0 = test system: 786-0
# TK-10 = test system: TK-10
# M14 = test system: M14
# SK-OV-3 = test system: SK-OV-3
# EKVX = test system: EKVX
Compound,GI50 (SK-MEL-5),GI50 (SR),GI50 (KM12),GI50 (IGROV-1),GI50 (UO-31),GI50 (Malme-3M),GI50 (NCI-H522),GI50 (OVCAR-8),GI50 (K562),GI50 (CCRF-CEM),GI50 (HL-60),GI50 (RXF 393),GI50 (786-0),GI50 (TK-10),GI50 (M14),GI50 (SK-OV-3),GI50 (EKVX)
CCOC(=O)CCC(=O)C1c2cccc(O)c2C(=O)c2c(O)cccc21,0.226 µM (active),2.24 µM (inactive),0.652 µM (active),1.87 µM (inactive),0.356 µM (active),1.78 µM (inactive),0.408 µM (active),1.58 µM (inactive),0.37 µM (active),1.1 µM (active),0.223 µM (active),0.71 µM (active),1.74 µM (inactive),2.38 µM (inactive),0.566 µM (active),–,–
O=C1CC2=CCCC2O1 (stereo not drawn),> 100 µM (inactive),–,> 100 µM (inactive),> 100 µM (inactive),> 100 µM (inactive),> 100 µM (inactive),> 100 µM (inactive),> 100 µM (inactive),> 100 µM (inactive),> 100 µM (inactive),> 100 µM (inactive),> 100 µM (inactive),> 100 µM (inactive),> 100 µM (inactive),> 100 µM (inactive),> 100 µM (inactive),> 100 µM (inactive)
Cc1cc2nc(O)c(CCC(=O)O)nc2cc1C,> 100 µM (inactive),43.4 µM (inactive),> 100 µM (inactive),> 100 µM (inactive),> 100 µM (inactive),> 100 µM (inactive),83.8 µM (inactive),> 100 µM (inactive),> 100 µM (inactive),> 100 µM (inactive),> 100 µM (inactive),> 100 µM (inactive),> 100 µM (inactive),> 100 µM (inactive),> 100 µM (inactive),> 100 µM (inactive),> 100 µM (inactive)
CSC(=O)C[C@@]12O[C@@H]([C@@H](C)C3CCC4[C@@H]5C(O)CC6=CC(=O)C=C[C@]6(C)C5CC[C@@]43C)C[C@](C)(O1)C(C)(C)O2 (stereo partly drawn),–,9.95 µM (inactive),16 µM (inactive),16.1 µM (inactive),12.3 µM (inactive),23.2 µM (inactive),14.1 µM (inactive),17.8 µM (inactive),4.3 µM (inactive),3.86 µM (inactive),7.85 µM (inactive),11.6 µM (inactive),16.1 µM (inactive),17.8 µM (inactive),16.3 µM (inactive),16.6 µM (inactive),–
O=C(NCO)NCOCn1c(=O)n(CO)c(=O)n(CO)c1=O,41.5 µM (inactive),29.2 µM (inactive),31 µM (inactive),> 100 µM (inactive),> 100 µM (inactive),31.5 µM (inactive),–,32.9 µM (inactive),32.1 µM (inactive),14.4 µM (inactive),22.3 µM (inactive),15.2 µM (inactive),34.6 µM (inactive),> 100 µM (inactive),17.1 µM (inactive),99.8 µM (inactive),> 100 µM (inactive)
CCSc1nnc(-c2ccccc2)nc1Cc1ccc(OC)cc1,–,42.8 µM (inactive),> 100 µM (inactive),> 100 µM (inactive),> 100 µM (inactive),> 100 µM (inactive),43.3 µM (inactive),> 100 µM (inactive),71.3 µM (inactive),69 µM (inactive),40.5 µM (inactive),> 100 µM (inactive),> 100 µM (inactive),> 100 µM (inactive),> 100 µM (inactive),67.3 µM (inactive),> 100 µM (inactive)
COc1ccc(-c2cc(-c3cc(Cl)cc(Br)c3O)nc(O)n2)cc1,–,18 µM (inactive),18.9 µM (inactive),20.4 µM (inactive),17.3 µM (inactive),19.4 µM (inactive),13.4 µM (inactive),16.7 µM (inactive),14.1 µM (inactive),19.8 µM (inactive),23.2 µM (inactive),14.5 µM (inactive),15.5 µM (inactive),26.2 µM (inactive),19.2 µM (inactive),19.5 µM (inactive),5.87 µM (inactive)
CC12CC/C(=N/NC(N)=O)C3C1CCCC32,> 100 µM (inactive),> 100 µM (inactive),> 100 µM (inactive),> 100 µM (inactive),> 100 µM (inactive),> 100 µM (inactive),> 100 µM (inactive),> 100 µM (inactive),> 100 µM (inactive),> 100 µM (inactive),> 100 µM (inactive),–,> 100 µM (inactive),> 100 µM (inactive),> 100 µM (inactive),> 100 µM (inactive),–
CC1(C)Oc2ccccc2N2O[C@@H]3C(=O)N(c4ccccc4)C(=O)[C@@H]3C21c1ccccc1 (stereo partly drawn),23 µM (inactive),–,30.6 µM (inactive),47.5 µM (inactive),66.1 µM (inactive),21.8 µM (inactive),28.7 µM (inactive),> 10 µM (inactive),37.4 µM (inactive),27.7 µM (inactive),> 10 µM (inactive),23.7 µM (inactive),16.6 µM (inactive),17.9 µM (inactive),20.7 µM (inactive),22.1 µM (inactive),56.1 µM (inactive)
CCN(CC)C(=O)CCn1ccc(=O)[nH]c1=O,> 100 µM (inactive),> 100 µM (inactive),> 100 µM (inactive),> 100 µM (inactive),> 100 µM (inactive),> 100 µM (inactive),> 100 µM (inactive),> 100 µM (inactive),> 100 µM (inactive),> 100 µM (inactive),> 100 µM (inactive),> 100 µM (inactive),> 100 µM (inactive),> 100 µM (inactive),> 100 µM (inactive),–,> 100 µM (inactive)
Cc1ccc2nc(NC(=O)C(=O)C(C#N)c3nc4ccccc4s3)sc2c1 (stereo not drawn),19.4 µM (inactive),–,47.2 µM (inactive),17.8 µM (inactive),39.8 µM (inactive),43.7 µM (inactive),32.1 µM (inactive),30.4 µM (inactive),29.2 µM (inactive),–,–,31.5 µM (inactive),44.5 µM (inactive),30.8 µM (inactive),33.8 µM (inactive),55.8 µM (inactive),39 µM (inactive)
COC(=O)C1=Cc2cc(OC)c(OC)c(OC)c2[C@H](c2cc(OC)c(OC)c(OC)c2)C1C(=O)OC (stereo partly drawn),> 100 µM (inactive),–,> 100 µM (inactive),> 100 µM (inactive),> 100 µM (inactive),> 100 µM (inactive),> 100 µM (inactive),> 100 µM (inactive),> 100 µM (inactive),> 100 µM (inactive),> 100 µM (inactive),> 100 µM (inactive),> 100 µM (inactive),> 100 µM (inactive),> 100 µM (inactive),> 100 µM (inactive),> 100 µM (inactive)
COc1ccc(/C=C/C(=O)c2sc(-c3cccnc3)nc2C)cc1,30.3 µM (inactive),–,15.3 µM (inactive),60.1 µM (inactive),41.7 µM (inactive),62.8 µM (inactive),20.5 µM (inactive),35.7 µM (inactive),21.8 µM (inactive),28.6 µM (inactive),20.4 µM (inactive),26.3 µM (inactive),41.6 µM (inactive),38.6 µM (inactive),–,82.6 µM (inactive),> 100 µM (inactive)
CSc1sc(=S)sc1C(=O)N(C)c1ccccc1,> 100 µM (inactive),83 µM (inactive),91.8 µM (inactive),> 100 µM (inactive),> 100 µM (inactive),> 100 µM (inactive),48.8 µM (inactive),> 100 µM (inactive),> 100 µM (inactive),56 µM (inactive),35.6 µM (inactive),81.5 µM (inactive),> 100 µM (inactive),> 100 µM (inactive),> 100 µM (inactive),–,> 100 µM (inactive)
COc1ccc([C@H]2CC3C(=O)N(c4ccc(OC)cc4)C(=O)C3c3[nH]c4ccccc4c32)cc1 (stereo partly drawn),46.3 µM (inactive),–,47 µM (inactive),> 100 µM (inactive),> 100 µM (inactive),36.1 µM (inactive),99.5 µM (inactive),17.1 µM (inactive),> 100 µM (inactive),48.4 µM (inactive),–,–,10.8 µM (inactive),> 100 µM (inactive),66.5 µM (inactive),44.2 µM (inactive),> 100 µM (inactive)
CC(C)CCC[C@@H](C)C1CCC2[C@@H]3CC=C4C[C@@H](C(=O)NCC[N+](C)(C)CCCS(=O)(=O)[O-])CC[C@]4(C)C3CC[C@@]21C (stereo partly drawn),19.9 µM (inactive),–,17.4 µM (inactive),17.3 µM (inactive),19.8 µM (inactive),18.9 µM (inactive),11.5 µM (inactive),18.8 µM (inactive),14.2 µM (inactive),16.2 µM (inactive),13.4 µM (inactive),20.9 µM (inactive),17.2 µM (inactive),–,17.2 µM (inactive),16.8 µM (inactive),16.9 µM (inactive)
N#[N+][c-]1c(-c2ccccc2)n[nH]c1=O,–,> 100 µM (inactive),> 100 µM (inactive),> 100 µM (inactive),–,> 100 µM (inactive),> 100 µM (inactive),> 100 µM (inactive),97.9 µM (inactive),> 100 µM (inactive),> 100 µM (inactive),> 100 µM (inactive),> 100 µM (inactive),> 100 µM (inactive),> 100 µM (inactive),> 100 µM (inactive),> 100 µM (inactive)
